According to patent US20260022143A1, “Cyclic Peptide Inhibitors of IL-23” (JANSSEN PHARMACEUTICA NV, priority 2022, published 2026):
Starred links: 1 amine or outer side, 2 acyl side, 3 side chain; linkers in the order of their positions; H or OH if unused. Positions of bridges follow the written chain, without caps; N, C: chain ends. Non-standard residues stand in square brackets, D forms with d. Residues, ends and D or L forms follow the SMILES beside them. Groups on a side chain read outwards from the residue. *: point of attachment. Me3N+(CH2)2O(CH2)2O(CH2)2CO = C[N+](C)(C)CCOCCOCCC(=O)*; Trp(7-Me) = Cc1cccc2c(C[C@H](N)C(=O)O)c[nH]c12; d(hLys(Me3)) = C[N+](C)(C)CCCCC[C@@H](N)C(=O)O; γGlu = O=C(O)[C@H](CCC(=O)[*:2])N[*:1]; 2Nal = N[C@@H](Cc1ccc2ccccc2c1)C(=O)O; 3Pal = N[C@@H](Cc1cccnc1)C(=O)O; Myristoyl = CCCCCCCCCCCCCC(=O)*; Lys(Me) = CNCCCC[C@H](N)C(=O)O; Pen = CC(C)(S)[C@H](N)C(=O)O; Lauroyl = CCCCCCCCCCCC(=O)*; Thp = NC1(C(=O)O)CCOCC1; X3 = C[N+](C)(C)CCCCC*; AEEA = NCCOCCOCC(=O)O; Sar = CNCC(=O)O

test: Exposed Polar Surface Area (EPSA); format: physicochemical; settings: SFC on Chirex 3014 column; sample 1 mM DMSO stock; read-out: EPSA
Procedure, shortened: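 Compounds, as 1 mM DMSO stock, were injected in duplicate onto an SFC Chirex 3014 column at 35 °C and eluted with a CO2/methanol (20 mM ammonium formate) gradient. EPSA values in Å^2 were derived from retention times using a linear fit to eight calibration standards, reinjected every 20 compounds.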

EPSA | Compound
176 A^2 | CCCCCCCCCCCCCC(=O)N[C@@H](CCC(=O)NCCOCCOCC(=O)NCCOCCOCC(=O)NCCCC[C@H](NC(=O)C1(NC(=O)[C@H](Cc2ccc3ccccc3c2)NC(=O)[C@H](Cc2ccc(OCCCCC[N+](C)(C)C)cc2)NC(=O)[C@H]2NC(=O)[C@H](CCCCN(C)C(C)=O)NC(=O)[C@H](Cc3c[nH]c4c(C)cccc34)NC(=O)[C@H]([C@@H](C)O)NC(=O)[C@H](CC(=O)N(C)C)NC(=O)[C@@H](NC(=O)[C@@H](CCCCC[N+](C)(C)C)NC(=O)COCCOCCNC(=O)COCCOCCNC(=O)CC[C@H](NC(=O)CCCCCCCCCCCCC)C(=O)O)C(C)(C)SSC2(C)C)CCOCC1)C(=O)N[C@@H](CC(N)=O)C(=O)N[C@@H](Cc1cccnc1)C(=O)N(C)CC(=O)N(C)C)C(=O)O [compound 376, C14gEPEG2PEG2CO-hk(Me)3-Pen(3)-N(N(Me)2)-T-7MeW-K(NMeAc)-Pen(3)-TMAPF-2Nal-THP-K(PEG2PEG2gEC14)-N-3Pya-Sar-CON(Me)2] ({Myristoyl-γGlu-AEEA-AEEA}-[d(hLys(Me3))][Pen]D(NMe2)T[Trp(7-Me)][Lys(Me)](Ac)[Pen]Y(X3)[2Nal][Thp]K([AEEA-AEEA-γGlu-Myristoyl])N[3Pal][Sar]-NMe2; disulfide 2-7)
171 A^2 | CCCCCCCCCCCC(=O)N[C@@H](CCC(=O)NCCOCCOCC(=O)NCCOCCOCC(=O)NCCCC[C@@H]1NC(=O)[C@@H](NC(=O)[C@@H](CCCCNC(=O)COCCOCCNC(=O)COCCOCCNC(=O)CC[C@H](NC(=O)CCCCCCCCCCC)C(=O)O)NC(=O)CCOCCOCC[N+](C)(C)C)C(C)(C)SSC(C)(C)[C@@H](C(=O)N[C@@H](Cc2ccc(OCCCCC[N+](C)(C)C)cc2)C(=O)N[C@@H](Cc2ccc3ccccc3c2)C(=O)NC2(C(=O)N[C@@H](CCCCN(C)C(C)=O)C(=O)N[C@@H](CC(N)=O)C(=O)N[C@@H](Cc3cccnc3)C(=O)N(C)CC(=O)N(C)C)CCOCC2)NC(=O)[C@H](CCCCN(C)C(C)=O)NC(=O)[C@H](Cc2c[nH]c3c(C)cccc23)NC(=O)[C@H]([C@@H](C)O)NC1=O)C(=O)O [compound 380, cPEG3aCO-k(PEG2PEG2gEC12)-Pen(3)-K(PEG2PEG2gEC12)-T-7MeW-K(NMeAc)-Pen(3)-TMAPF-2Nal-THP-K(NMeAc)-N-3Pya-Sar-CON(Me)2] ({Me3N+(CH2)2O(CH2)2O(CH2)2CO}-[dK]([AEEA-AEEA-γGlu-Lauroyl])[Pen]K([AEEA-AEEA-γGlu-Lauroyl])T[Trp(7-Me)][Lys(Me)](Ac)[Pen]Y(X3)[2Nal][Thp][Lys(Me)](Ac)N[3Pal][Sar]-NMe2; disulfide 2-7)
171 A^2 | CCCCCCCCCCCCCC(=O)N[C@@H](CCC(=O)NCCOCCOCC(=O)NCCOCCOCC(=O)NCCCC[C@@H]1NC(=O)[C@@H](NC(=O)[C@@H](CCCCNC(=O)COCCOCCNC(=O)COCCOCCNC(=O)CC[C@H](NC(=O)CCCCCCCCCCCCC)C(=O)O)NC(=O)CCOCCOCC[N+](C)(C)C)C(C)(C)SSC(C)(C)[C@@H](C(=O)N[C@@H](Cc2ccc(OCCCCC[N+](C)(C)C)cc2)C(=O)N[C@@H](Cc2ccc3ccccc3c2)C(=O)NC2(C(=O)N[C@@H](CCCCN(C)C(C)=O)C(=O)N[C@@H](CC(N)=O)C(=O)N[C@@H](Cc3cccnc3)C(=O)N(C)CC(=O)N(C)C)CCOCC2)NC(=O)[C@H](CCCCN(C)C(C)=O)NC(=O)[C@H](Cc2c[nH]c3c(C)cccc23)NC(=O)[C@H]([C@@H](C)O)NC1=O)C(=O)O [compound 381, cPEG3aCO-k(PEG2PEG2gEC14)-Pen(3)-K(PEG2PEG2gEC14)-T-7MeW-K(NMeAc)-Pen(3)-TMAPF-2Nal-THP-K(NMeAc)-N-3Pya-Sar-CON(Me)2] ({Me3N+(CH2)2O(CH2)2O(CH2)2CO}-[dK]([AEEA-AEEA-γGlu-Myristoyl])[Pen]K([AEEA-AEEA-γGlu-Myristoyl])T[Trp(7-Me)][Lys(Me)](Ac)[Pen]Y(X3)[2Nal][Thp][Lys(Me)](Ac)N[3Pal][Sar]-NMe2; disulfide 2-7)
161 A^2 | CCCCCCCCCCCCCC(=O)N[C@@H](CCC(=O)NCCOCCOCC(=O)NCCOCCOCC(=O)NCCCC[C@@H]1NC(=O)[C@@H](NC(=O)CCOCCOCC[N+](C)(C)C)C(C)(C)SSC(C)(C)[C@@H](C(=O)N[C@@H](Cc2ccc(OCCCCC[N+](C)(C)C)cc2)C(=O)N[C@@H](Cc2ccc3ccccc3c2)C(=O)NC2(C(=O)N[C@@H](CCCCN(C)C(C)=O)C(=O)N[C@@H](CC(N)=O)C(=O)N[C@@H](Cc3cccnc3)C(=O)N(C)CC(=O)N(C)C)CCOCC2)NC(=O)[C@H](CCCCN(C)C(C)=O)NC(=O)[C@H](Cc2c[nH]c3c(C)cccc23)NC(=O)[C@H]([C@@H](C)O)NC1=O)C(=O)O [compound 388, cPEG3aCO-Pen(3)-K(PEG2PEG2gEC14)-T-7MeW-K(NMeAc)-Pen(3)-TMAPF-2Nal-THP-K(NMeAc)-N-3Pya-Sar-CON(Me)2] ({Me3N+(CH2)2O(CH2)2O(CH2)2CO}-[Pen]K([AEEA-AEEA-γGlu-Myristoyl])T[Trp(7-Me)][Lys(Me)](Ac)[Pen]Y(X3)[2Nal][Thp][Lys(Me)](Ac)N[3Pal][Sar]-NMe2; disulfide 1-6)
144 A^2 | CC(=O)N(C)CCCC[C@@H]1NC(=O)[C@H](Cc2c[nH]c3c(C)cccc23)NC(=O)[C@H]([C@@H](C)O)NC(=O)[C@H](CCCCNC(=O)CCOCCOCC[N+](C)(C)C)NC(=O)[C@@H](NC(=O)CCOCCOCC[N+](C)(C)C)C(C)(C)SSC(C)(C)[C@@H](C(=O)N[C@@H](Cc2ccc(OCCCCC[N+](C)(C)C)cc2)C(=O)N[C@@H](Cc2ccc3ccccc3c2)C(=O)NC2(C(=O)N[C@@H](CCCCN(C)C(C)=O)C(=O)N[C@@H](CC(N)=O)C(=O)N[C@@H](Cc3cccnc3)C(=O)N(C)CC(=O)N(C)C)CCOCC2)NC1=O [compound 393, cPEG3aCO-Pen(3)-K(cPEG3a)-T-7MeW-K(NMeAc)-Pen(3)-TMAPF-2Nal-THP-K(NMeAc)-N-3Pya-Sar-CON(Me)2] ({Me3N+(CH2)2O(CH2)2O(CH2)2CO}-[Pen]K(Me3N+(CH2)2O(CH2)2O(CH2)2CO)T[Trp(7-Me)][Lys(Me)](Ac)[Pen]Y(X3)[2Nal][Thp][Lys(Me)](Ac)N[3Pal][Sar]-NMe2; disulfide 1-6)
189 A^2 | CCCCCCCCCCCCCC(=O)N[C@@H](CCC(=O)NCCOCCOCC(=O)NCCOCCOCC(=O)NCCCC[C@H](NC(=O)C1(NC(=O)[C@H](Cc2ccc3ccccc3c2)NC(=O)[C@H](Cc2ccc(OCCCCC[N+](C)(C)C)cc2)NC(=O)[C@H]2NC(=O)[C@H](CCCCN(C)C(C)=O)NC(=O)[C@H](Cc3c[nH]c4c(C)cccc34)NC(=O)[C@H]([C@@H](C)O)NC(=O)[C@H](CC(=O)N(C)C)NC(=O)[C@@H](NC(=O)[C@@H](CCCCNC(=O)COCCOCCNC(=O)COCCOCCNC(=O)CC[C@H](NC(=O)CCCCCCCCCCCCC)C(=O)O)NC(=O)CCOCCOCC[N+](C)(C)C)C(C)(C)SSC2(C)C)CCOCC1)C(=O)N[C@@H](CC(N)=O)C(=O)N[C@@H](Cc1cccnc1)C(=O)N(C)CC(=O)N(C)C)C(=O)O [compound 395, cPEG3aCO-k(PEG2PEG2gEC14)-Pen(3)-N(N(Me)2)-T-7MeW-K(NMeAc)-Pen(3)-TMAPF-2Nal-THP-K(PEG2PEG2gEC14)-N-3Pya-Sar-CON(Me)2] ({Me3N+(CH2)2O(CH2)2O(CH2)2CO}-[dK]([AEEA-AEEA-γGlu-Myristoyl])[Pen]D(NMe2)T[Trp(7-Me)][Lys(Me)](Ac)[Pen]Y(X3)[2Nal][Thp]K([AEEA-AEEA-γGlu-Myristoyl])N[3Pal][Sar]-NMe2; disulfide 2-7)
